Legend:
Type in all cases: biochemical
wild type B-Raf = wild type B-Raf (Homo sapiens (Human), UniProt P15056); assay: WT BRaf IC50 assay, TR-FRET; parameters: Braf-WT Km ATP, % at 100 nM: scale not given here; details: for IC50: Km ATP ([…] ATP), read-out: IC50 Braf-WT Km ATP; for Braf-WT Km ATP, % at 100 nM: at 100 nM compound
Procedure: WT BRaf IC50 Assay Protocol
Compounds disclosed herein were tested against wild type B-Raf (PV3848, from Invitrogen) in a time-resolved fluorescence energy transfer assay. […] The enzyme was incubated with the compounds disclosed herein at room temperature for 120 minutes and the reactions were initiated by the addition of ATP and GST-MEK1. After incubating at room temperature for 60 minutes, an equal volume of stop buffer containing 25 mM Tris pH7.4, 400 mM KF, 50 mM EDTA, 0.1% BSA, 0.01% Triton X-100, 1 test of Eu3+Cryptate-conjugated rabbit polyclonal antibody anti-Phospho MEK1/2 (Ser217/221) and 1 test of d2-conjugated mouse monoclonal antibody anti-glutathione S-transferase was added to stop the reactions. Plates were sealed and incubated at room temperature for 1.5 hours, and then the TR-FRET signals were read on BMG PHERAstar FS instrument. The IC50 for each compound was calculated by non linear regression by Graphpad Prism software.

B-Raf (V600E) = B-Raf (V600E) (Homo sapiens (Human), UniProt P15056, V600E); assay: Raf IC50 assay, TR-FRET, B-Raf (V600E); details: 0.1 mM ATP; read-out: IC50 BRAF-V600E
Procedure: The enzyme was incubated with the compounds disclosed herein at room temperature for 60 minutes and the reactions were initiated by the addition of ATP and GST-MEK1. After reaction at room temperature for 60 minutes, an equal volume of stop/detection solution was added according to the manufacture's instruction (CisBio Bioassays). […] The IC50 for each compound was derived from fitting the dose-response % inhibition data to the four-parameter logistic model by Graphpad Prism software.

C-Raf (Y340D/Y341D) = C-Raf (Y340D/Y341D) (Homo sapiens (Human), UniProt P04049, Y340D/Y341D); assay: Raf IC50 assay, TR-FRET, C-Raf (Y340D/Y341D); details: 0.1 mM ATP
Procedure: Compounds disclosed herein were tested against B-Raf (V600E) (PV3849, from Invitrogen) or C-Raf (Y340D/Y341D) (PV3805, from Invitrogen) in a time-resolved fluorescence energy transfer assay. The assay was carried out in reactions (10 μL) containing 0.0625 nM B-Raf or 0.5 nM C-Raf, 25 mM Tris pH7.4, 10 mM MgCl2, 0.5 mM EGTA, 0.5 mM Na3VO4, 5 mM beta-glycerophosphate, 0.01% Triton X-100, 2.5 mM DTT, 0.1% BSA, 0.1 mM ATP, 13.7 nM GST-tagged MEK1 (Full-length protein with K97R mutation, recombinant protein purified from bacterial expression system) and 0-5 μM compounds disclosed herein (final concentration of 1% DMSO). The enzyme was incubated with the compounds disclosed herein at room temperature for 60 minutes and the reactions were initiated by the addition of ATP and GST-MEK1. After reaction at room temperature for 60 minutes, an equal volume of stop/detection solution was added according to the manufacture's instruction (CisBio Bioassays). The stop/detection solution contained Eu^3+ cryptate-conjugated anti-phospho MEK1/2 (Ser217/221) rabbit polyclonal antibody and d2-conjugated anti-GST mouse monoclonal antibody in buffer containing 25 mM Tris pH7.4, 400 mM KF, 50 mM EDTA, 0.01% BSA and 0.01% Triton X-100. Plates were sealed and incubated at room temperature for 2 hours, and the TR-FRET signals (ratio of fluorescence emission at 665 nm over emission at 620 nm with excitation at 337 nm wavelength) were recorded on a PHERAstar FS plate reader (BMG Labtech). Phosphorylation of MEK1 led to the binding of anti-phospho-MEK1/2 antibody to GST-MEK1 protein that place fluorescent donor (Eu^3+ crypate) in close proximity to the accepter d2 on the anti-GST antibody, thus resulting in a high degree of fluorescence resonance energy transfer from the donor fluorophore (at 620 nm) to the acceptor fluorophore (at 665 nm). […] The IC50 for each compound was derived from fitting the dose-response % inhibition data to the four-parameter logistic model by Graphpad Prism software.

WT EGFR kinase domain = WT EGFR kinase domain (Homo sapiens (Human), UniProt P00533); assay: EGFR enzymatic assay, TR-FRET, WT EGFR
Procedure: (§1) Compounds disclosed herein were tested against WT EGFR kinase domain (aa.669-1210, Carna Biosciences, 08-115), EGFR T790M/L858R kinase domain (aa.669-1210, Carna Biosciences, 08-510) and EGFR L858R kinase domain (aa.669-1210, Carna Biosciences, 08-502) in assays based on time-resolved fluorescence-resonance energy transfer methodology. The assay was carried out in 384-well low volume black plate in a reaction mixture containing EGFR kinases, 20 LM for EGFR WT and T790M/L858R, and 125 LM for EGFR L858R), biotin-TK substrate and 0-5 LM compounds in buffer containing 50 mM HEPES pH7.5, 10 mM MgCl2, 1 mM EGTA, 0.01% Brij-35, 2.5 mM DTT, 0.1% BSA. The kinase was incubated with the compounds disclosed herein at room temperature for 120 minutes and the reaction was initiated by the addition of ATP and biotin-TK substrate. After reaction at room temperature for 30 minutes, an equal volume of stop/detection solution was added according to the manufacture's instruction (CisBio Bioassays). The stop/detection solution contained TK-Antibody-Cryptate and Streptavidin-XL665 in buffer containing 25 mM Tris pH7.4, 400 mM KF, 50 mM EDTA, 0.01% BSA, 0.01% Triton X-100. Plates were sealed and incubated at room temperature for 1 hour, and the TR-FRET signals were read on BMG PHERAstar FS instrument. The IC50 of an inhibitor was derived from fitting the % inhibition data at each compound concentration to the four-parameter logistic equation by Graphpad Prism software.

EGFR L858R kinase domain = EGFR L858R kinase domain (Homo sapiens (Human), UniProt P00533, L858R); assay: EGFR enzymatic assay, TR-FRET, EGFR L858R
Procedure: as §1

[1] = target: EGFR T790M/L858R kinase domain (Homo sapiens (Human), UniProt P00533, L858R/T790M); assay: EGFR enzymatic assay, TR-FRET, EGFR T790M/L858R
Procedure: as §1

Chain of EGFR L858R kinase domain (P00533 669-1210 L858R): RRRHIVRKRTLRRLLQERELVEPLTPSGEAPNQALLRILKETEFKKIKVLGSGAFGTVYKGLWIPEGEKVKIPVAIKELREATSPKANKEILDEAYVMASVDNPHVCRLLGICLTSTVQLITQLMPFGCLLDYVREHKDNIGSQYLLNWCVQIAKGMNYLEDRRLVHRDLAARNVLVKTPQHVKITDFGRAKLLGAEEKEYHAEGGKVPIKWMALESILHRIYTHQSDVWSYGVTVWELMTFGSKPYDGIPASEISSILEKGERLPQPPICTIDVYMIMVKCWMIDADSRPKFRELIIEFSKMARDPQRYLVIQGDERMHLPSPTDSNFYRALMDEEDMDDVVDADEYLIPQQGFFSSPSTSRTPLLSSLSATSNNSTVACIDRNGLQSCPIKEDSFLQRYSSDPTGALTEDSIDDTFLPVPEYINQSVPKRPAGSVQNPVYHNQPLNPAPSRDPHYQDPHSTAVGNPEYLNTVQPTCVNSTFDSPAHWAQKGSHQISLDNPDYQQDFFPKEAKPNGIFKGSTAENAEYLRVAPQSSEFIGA
Chain of B-Raf (V600E) (P15056 whole entry V600E): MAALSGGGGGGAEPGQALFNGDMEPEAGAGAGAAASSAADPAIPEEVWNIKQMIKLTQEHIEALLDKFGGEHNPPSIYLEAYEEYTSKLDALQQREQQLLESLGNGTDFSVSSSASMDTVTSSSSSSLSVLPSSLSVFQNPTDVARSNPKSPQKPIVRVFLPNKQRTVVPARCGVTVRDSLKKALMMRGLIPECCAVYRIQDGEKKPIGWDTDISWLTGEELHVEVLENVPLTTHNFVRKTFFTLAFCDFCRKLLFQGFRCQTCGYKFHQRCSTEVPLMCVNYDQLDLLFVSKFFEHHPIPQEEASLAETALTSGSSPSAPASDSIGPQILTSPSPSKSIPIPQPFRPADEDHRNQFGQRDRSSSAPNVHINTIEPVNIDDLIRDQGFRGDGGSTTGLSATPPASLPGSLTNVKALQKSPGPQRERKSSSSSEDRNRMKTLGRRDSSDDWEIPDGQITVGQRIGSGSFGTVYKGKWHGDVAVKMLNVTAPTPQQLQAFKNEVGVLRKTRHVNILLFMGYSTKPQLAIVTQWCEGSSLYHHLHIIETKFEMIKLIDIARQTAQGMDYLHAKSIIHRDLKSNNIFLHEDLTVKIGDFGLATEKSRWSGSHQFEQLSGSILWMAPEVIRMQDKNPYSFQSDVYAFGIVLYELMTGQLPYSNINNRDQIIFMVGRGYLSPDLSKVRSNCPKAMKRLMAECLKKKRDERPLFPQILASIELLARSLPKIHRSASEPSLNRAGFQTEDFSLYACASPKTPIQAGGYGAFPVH
Chain of EGFR T790M/L858R kinase domain (P00533 669-1210 T790M/L858R): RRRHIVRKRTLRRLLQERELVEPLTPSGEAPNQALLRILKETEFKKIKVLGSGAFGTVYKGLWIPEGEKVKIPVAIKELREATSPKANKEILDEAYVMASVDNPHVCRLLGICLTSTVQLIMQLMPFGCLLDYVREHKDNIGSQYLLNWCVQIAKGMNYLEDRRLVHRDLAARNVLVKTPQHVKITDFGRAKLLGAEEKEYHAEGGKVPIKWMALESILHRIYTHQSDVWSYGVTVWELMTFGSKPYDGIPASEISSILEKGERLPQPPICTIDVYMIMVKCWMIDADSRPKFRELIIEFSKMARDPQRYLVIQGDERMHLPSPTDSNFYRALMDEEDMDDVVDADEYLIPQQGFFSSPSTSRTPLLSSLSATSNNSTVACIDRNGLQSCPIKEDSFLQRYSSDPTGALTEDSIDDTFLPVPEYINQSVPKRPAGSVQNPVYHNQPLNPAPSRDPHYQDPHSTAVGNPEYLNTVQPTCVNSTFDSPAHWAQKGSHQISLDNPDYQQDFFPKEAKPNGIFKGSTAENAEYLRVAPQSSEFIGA
Chain of WT EGFR kinase domain (P00533 669-1210): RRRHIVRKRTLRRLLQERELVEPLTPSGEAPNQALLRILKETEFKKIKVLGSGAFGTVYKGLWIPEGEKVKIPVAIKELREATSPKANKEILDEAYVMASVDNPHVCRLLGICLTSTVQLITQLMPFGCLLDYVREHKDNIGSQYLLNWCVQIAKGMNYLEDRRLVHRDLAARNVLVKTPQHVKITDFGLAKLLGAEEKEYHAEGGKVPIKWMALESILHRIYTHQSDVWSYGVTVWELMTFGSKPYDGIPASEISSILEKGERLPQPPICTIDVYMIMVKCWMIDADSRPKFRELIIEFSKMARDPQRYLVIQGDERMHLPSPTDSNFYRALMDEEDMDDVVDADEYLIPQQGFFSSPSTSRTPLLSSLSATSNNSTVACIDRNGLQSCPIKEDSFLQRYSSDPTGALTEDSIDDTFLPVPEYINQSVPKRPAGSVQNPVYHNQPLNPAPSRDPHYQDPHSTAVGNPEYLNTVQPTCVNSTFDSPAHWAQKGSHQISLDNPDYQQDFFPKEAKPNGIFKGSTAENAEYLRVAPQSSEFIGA
Chain of wild type B-Raf (P15056 whole entry): as the sequence (P15056 whole entry V600E) above, with E600V counted along it
Chain of C-Raf (Y340D/Y341D) (P04049 whole entry Y340D/Y341D): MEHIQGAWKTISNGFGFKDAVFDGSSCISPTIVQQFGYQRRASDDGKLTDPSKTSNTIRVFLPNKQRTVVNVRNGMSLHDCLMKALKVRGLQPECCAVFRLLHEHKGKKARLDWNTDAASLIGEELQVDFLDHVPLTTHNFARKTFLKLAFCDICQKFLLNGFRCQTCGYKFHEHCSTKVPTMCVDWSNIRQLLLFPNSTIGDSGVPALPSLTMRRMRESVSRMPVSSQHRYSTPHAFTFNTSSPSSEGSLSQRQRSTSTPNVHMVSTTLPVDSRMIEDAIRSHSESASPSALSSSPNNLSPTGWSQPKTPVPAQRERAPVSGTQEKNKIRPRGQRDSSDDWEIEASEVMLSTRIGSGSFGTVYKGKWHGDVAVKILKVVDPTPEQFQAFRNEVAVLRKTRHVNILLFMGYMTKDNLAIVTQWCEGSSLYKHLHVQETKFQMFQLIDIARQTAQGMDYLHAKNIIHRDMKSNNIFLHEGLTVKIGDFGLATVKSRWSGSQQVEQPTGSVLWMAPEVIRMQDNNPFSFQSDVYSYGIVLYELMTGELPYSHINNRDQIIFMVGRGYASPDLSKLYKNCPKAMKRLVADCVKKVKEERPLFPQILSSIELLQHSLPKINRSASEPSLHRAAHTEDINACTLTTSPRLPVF

Row | IC50 (wild type B-Raf) | IC50 (B-Raf (V600E)) | IC50 (C-Raf (Y340D/Y341D)) | IC50 (WT EGFR kinase domain) | IC50 (EGFR L858R kinase domain) | IC50 [1] | Braf-WT Km ATP, % at 100 nM (wild type B-Raf) | SMILES
1 | 32 nM | – | – | – | – | – | – | CN(C)[C@H]1CCN(Cc2ccc(C(=O)N[C@@H]3[C@H]4Oc5ccc(Oc6ccnc7c6CCC(=O)N7)cc5[C@@H]34)cc2C(F)(F)F)C1 [Compound 1.9]
2 | 20 nM | 20 nM | 1.7 nM | – | – | – | – | O=C1CCc2c(Oc3ccc4c(c3)[C@H]3[C@H](NC(=O)c5ccc(CN6CCn7c(nnc7C(F)(F)F)C6)c(C(F)(F)F)c5)[C@H]3O4)ccnc2N1 [Compound 1.14]
3 | 16 nM | – | – | – | – | – | – | CN(C)C1CCN(Cc2ccc(C(=O)N[C@@H]3[C@H]4Oc5ccc(Oc6ccnc7c6CCC(=O)N7)cc5[C@@H]34)cc2C(F)(F)F)CC1 [Compound 1.20]
4 | – | 1.4 nM | – | 93 nM | 60 nM | 538 nM | 96% at 100 nM | O=C1CCc2c(Oc3ccc4c(c3)[C@H]3[C@H](NC(=O)c5ccc(F)cc5)[C@H]3O4)ccnc2N1 [Compound 1.36]
5 | – | 7.5 nM | – | 1240 nM | 529 nM | > 5000 nM | 80% at 100 nM | Cc1cccc(F)c1C(=O)N[C@@H]1[C@H]2Oc3ccc(Oc4ccnc5c4CCC(=O)N5)cc3[C@@H]12 [Compound 1.37]
6 | – | 4.7 nM | – | 425 nM | 79 nM | 3190 nM | 84% at 100 nM | O=C1CCc2c(Oc3ccc4c(c3)[C@H]3[C@H](NC(=O)c5ccccc5F)[C@H]3O4)ccnc2N1 [Compound 1.38]
7 | – | 1.2 nM | – | 59 nM | 29 nM | 648 nM | 100% at 100 nM | O=C1CCc2c(Oc3ccc4c(c3)[C@H]3[C@H](NC(=O)c5ccc(F)c(F)c5)[C@H]3O4)ccnc2N1 [Compound 1.41]
8 | – | 9.2 nM | – | – | – | – | 102% at 100 nM | O=C1CCc2c(Oc3ccc4c(c3)[C@H]3[C@H](NC(=O)c5ccc(C(F)(F)F)c(F)c5)[C@H]3O4)ccnc2N1 [Compound 1.42]
9 | – | 4.8 nM | – | 243 nM | 63 nM | > 5000 nM | 93% at 100 nM | O=C1CCc2c(Oc3ccc4c(c3)[C@H]3[C@H](NC(=O)c5ccccc5C(F)(F)F)[C@H]3O4)ccnc2N1 [Compound 1.44]
10 | – | 3.1 nM | – | 8.5 nM | 5.4 nM | 104 nM | 101% at 100 nM | O=C1CCc2c(Oc3ccc4c(c3)[C@H]3[C@H](NC(=O)c5cc(C(F)(F)F)ccn5)[C@H]3O4)ccnc2N1 [Compound 1.45, N-((1S,1aS,6bS)-5-((7-oxo-5,6,7,8-tetrahydro-1,8-naphthyridin-4-yl)oxy)-1a,6b-dihydro-1H-cyclopropa[b]benzofuran-1-yl)-4-(trifluoromethyl)picolinamide]
11 | 1.4 nM | 2.5 nM | – | 85 nM | 52 nM | 316 nM | – | N#CC1(c2cccc(C(=O)N[C@@H]3[C@H]4Oc5ccc(Oc6ccnc7c6CCC(=O)N7)cc5[C@@H]34)c2)CC1 [Compound 1.46, 3-(1-cyanocyclopropyl)-N-((1S,1aS,6bS)-5-((7-oxo-5,6,7,8-tetrahydro-1,8-naphthyridin-4-yl)oxy)-1a,6b-dihydro-1H-cyclopropa[b]benzofuran-1-yl)benzamide]
12 | 9.8 nM | 14 nM | 1.61 nM | – | – | – | – | CN1CCC(Oc2ccc(C(=O)N[C@@H]3[C@H]4Oc5ccc(Oc6ccnc7c6CCC(=O)N7)cc5[C@@H]34)cc2C(F)(F)F)CC1 [Compound 1.51, 4-((1-methylpiperidin-4-yl)oxy)-N-((1S,1aS,6bS)-5-((7-oxo-5,6,7,8-tetrahydro-1,8-naphthyridin-4-yl)oxy)-1a,6b-dihydro-1H-cyclopropa[b]benzofuran-1-yl)-3-(trifluoromethyl)benzamide]
13 | 15 nM | – | – | – | – | – | – | CN1CCN(CCOc2ccc(C(=O)N[C@@H]3[C@H]4Oc5ccc(Oc6ccnc7c6CCC(=O)N7)cc5[C@@H]34)cc2C(F)(F)F)CC1 [Compound 1.52]
14 | – | 16 nM | – | 678 nM | 68 nM | 1140 nM | 86% at 100 nM | O=C(/C=C/c1cccc(C(F)(F)F)c1)N[C@@H]1[C@H]2Oc3ccc(Oc4ccnc5c4CCC(=O)N5)cc3[C@@H]12 [Compound 1.53]
15 | – | 4.9 nM | – | 326 nM | 152 nM | 757 nM | 93% at 100 nM | O=C1CCc2c(Oc3ccc4c(c3)[C@H]3[C@H](NC(=O)c5ccc(-c6ccccc6)o5)[C@H]3O4)ccnc2N1 [Compound 1.54]
16 | – | 17 nM | – | 0.43 nM | 0.085 nM | 0.076 nM | – | CCN1CCN(Cc2ccc(C(=O)N[C@@H]3[C@H]4Oc5ccc(Oc6ccnc7c6CNC(=O)N7)cc5[C@@H]34)cc2C(F)(F)F)CC1 [Compound 2.6, 4-((4-ethylpiperazin-1-yl)methyl)-N-((1S,1aS,6bS)-5-((2-oxo-1,2,3,4-tetrahydropyrido[2,3-d]pyrimidin-5-yl)oxy)-1a,6b-dihydro-1H-cyclopropa[b]benzofuran-1-yl)-3-(trifluoromethyl)benzamide]
17 | – | 16 nM | – | 0.67 nM | 0.15 nM | 0.084 nM | – | CN1CCN(Cc2ccc(C(=O)N[C@@H]3[C@H]4Oc5ccc(Oc6ccnc7c6CNC(=O)N7)cc5[C@@H]34)cc2C(F)(F)F)CC1 [Compound 2.7]
18 | – | 2840 nM | 277 nM | – | – | – | −2% at 100 nM | N[C@@H]1[C@H]2Oc3ccc(Oc4ccnc5c4CCC(=O)N5)cc3[C@@H]12 [Intermediate I, 5-(((1S,1aS,6bS)-1-amino-1a,6b-dihydro-1H-cyclopropa[b]benzofuran-5-yl)oxy)-3,4-dihydro-1,8-naphthyridin-2(1H)-one]
